These results are taken from patent US8975232B2, “Macrocyclic kinase inhibitors and uses thereof” (President and Fellows of Harvard College, priority 2010, dated 2015).

Experiment [1] deals with panel of 44 human kinases. As to the kind of experiment: Kinase selectivity panel at 5 μM, Invitrogen SelectScreen. Format: biochemical. The following applies: includes all nine Src-family kinases. The method, then: Src IC50 determinations and single-point inhibition measurements were performed using Invitrogen's Z′-LYTE Tyr 02 assay kit according to the manufacturer's protocols. All kinase assays were performed at ATP concentrations near KM,ATP values, except where noted otherwise. Active human Src kinase was obtained from Millipore. For kinome profiling and IC50 determinations against non-Src kinases, compounds were submitted to Invitrogen's SelectScreen Kinase Profiling Service.

The target of another experiment is T1, Src kinase domain (Gallus gallus, UniProt P00523).
T1 construct: chicken c-Src (residues 251-533 and residues 83-533); made in house
Briefly: Fluorescence anisotropy binding assay. The following applies: fluorescein-labeled macrocycle, read-out: dissociation constant (KD). Further details: species or system chicken. How it is done:
The change in fluorescence anisotropy of fluorescein-labeled MC1, MC4 and MC9 at 518 nm upon excitation at 492 nm was monitored with a HORIBA Jobin Yvon FluoroMax-4 (Edison, N.J.) spectrofluorimeter. Kinase was titrated to 0.5 μM of the fluorescently labeled macrocycle in 100 mM Tris pH 8.0, 10 mM MgCl2 at 25° C. After equilibration, the increase in the fluorescence anisotropy of the fluorescently labeled ligand was recorded and fitted against a quadratic binding equation in Kaleidagraph (Synergy Software, Reading Pa.) to yield the dissociation constant KD.
To clarify the inhibitory mechanism of the compounds further, the binding affinity of fluorescently labeled MC1, MC4, and MC9 to Src kinase domain was determined in a fluorescence anisotropy assay (FIG. 21).
In general terms: Polarisation of emitted light reports the rotation of a fluorescent probe.

The next experiment addresses Src kinase (Homo sapiens, UniProt P12931). Briefly: Z'-LYTE kinase assay (Invitrogen), Src. Format: biochemical. Details: full-length kinase in the Z-LYTE assay vs. kinase domain in the current study; purchased Millipore. The essentials:
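Human Src activity measured by FRET-based Z′-LYTE Tyr 02 peptide assay at ATP near KM,ATP unless noted. IC50s and single-point inhibition determined over varying macrocycle concentrations. Non-Src kinases tested via a commercial profiling service.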

The next experiment addresses HCK (Homo sapiens, UniProt P08631). As to the kind of experiment: Continuous spectrophotometric kinase activity assay. The experiment is classed as biochemical. Further details: Kinase domain constructs of human c-Abl (residues 229-512), chicken c-Src (residues 251-533 and residues 83-533), murine Lck (residues 227-509), and human Hck (residues 166-445); made in house.

Like-named read-outs stand apart in the source and are kept apart here. A value given as a limit tells only on which side of the number the result lay.

Chain of HCK (P08631 262-515 limits assumed): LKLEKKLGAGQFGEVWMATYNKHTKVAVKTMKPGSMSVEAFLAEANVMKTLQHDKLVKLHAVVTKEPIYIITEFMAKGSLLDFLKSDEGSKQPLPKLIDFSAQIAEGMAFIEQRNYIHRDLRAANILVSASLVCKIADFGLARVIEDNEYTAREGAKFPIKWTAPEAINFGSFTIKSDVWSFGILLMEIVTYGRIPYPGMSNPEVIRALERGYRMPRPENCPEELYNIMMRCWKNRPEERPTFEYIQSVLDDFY
Chain of Src kinase (P12931 whole entry, the tested form may be a part): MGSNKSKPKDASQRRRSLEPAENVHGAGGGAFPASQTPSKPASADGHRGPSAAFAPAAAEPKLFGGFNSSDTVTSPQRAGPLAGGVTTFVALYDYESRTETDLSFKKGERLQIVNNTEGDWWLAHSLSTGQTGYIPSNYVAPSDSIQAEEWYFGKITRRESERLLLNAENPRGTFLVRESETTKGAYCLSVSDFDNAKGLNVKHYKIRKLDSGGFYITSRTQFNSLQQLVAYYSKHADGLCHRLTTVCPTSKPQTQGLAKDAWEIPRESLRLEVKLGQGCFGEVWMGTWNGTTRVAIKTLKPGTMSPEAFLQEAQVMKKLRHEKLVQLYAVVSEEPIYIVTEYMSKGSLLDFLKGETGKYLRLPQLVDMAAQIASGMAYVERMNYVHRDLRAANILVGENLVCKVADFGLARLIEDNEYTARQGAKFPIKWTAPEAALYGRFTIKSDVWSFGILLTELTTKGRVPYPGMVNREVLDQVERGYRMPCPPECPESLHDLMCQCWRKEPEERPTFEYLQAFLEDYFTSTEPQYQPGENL

As to `NC(=O)[C@@H]1CCCNC(=O)[C@H](Cc2ccc([N+](=O)[O-])cc2)NC(=O)[C@H](Cc2ccco2)NC(=O)[C@H](CC2CC2)NC(=O)/C=C/C(=O)N1` [trans-A10-B1-C5-D6], the “off-target inhibition in kinase panel (in words)” value in experiment [1] is “no significant off-target inhibition”. Moreover, the Kd was 1700 nM on Src kinase domain (250 μM AMP-PNP) and 300 nM at Src kinase domain (no competitor). The “% inhibition” value on Src kinase (SRC, 5 μM, data from FIG. 8 and Table 6) was found to be 86%. Besides, at Src kinase (apparent KM for ATP versus macrocycle concentration), the “mode of Src inhibition” value is on record as “ATP-competitive”. Further, the IC50 on HCK (5 μM ATP, 100 μM Src optimal peptide) is over 100000 nM; on HCK (5 μM ATP, 300 μM Src optimal peptide), over 100000 nM; at HCK (250 μM ATP, 300 μM Src optimal peptide), over 100000 nM.

A word on the Kd: it is the free concentration of one partner at which half of the binding sites on the other are occupied at equilibrium, for simple one-to-one binding. By % inhibition is commonly meant the change of the read-out against control, counted positive when it falls. A higher % inhibition goes with strong suppression. As usually defined, the IC50 is the concentration that inhibits the measured activity by half. A higher IC50 goes with weaker potency in that assay.
